# Assay results taken from US5773459A, “Urea- and thiourea-type compounds” (Sugen, Inc., priority 1995, dated 1998).
# pIC50: −log10 of the molar value. Read-outs that look alike come from different tables or passages of the source.
# Legend:
# PDGFR-beta = molecular target: T1, PDGFR-beta (Homo sapiens, UniProt P09619); test: PDGF-R Cellular Assay (cellular kinase ELISA); type: cell-based
# T1 construct: the human glioblastoma line U1242 that expresses PDGFR-beta; endogenous in cells; host or cells: U1242 (U1242 MG) human glioblastoma
# T1 sequence (P09619 33-1106): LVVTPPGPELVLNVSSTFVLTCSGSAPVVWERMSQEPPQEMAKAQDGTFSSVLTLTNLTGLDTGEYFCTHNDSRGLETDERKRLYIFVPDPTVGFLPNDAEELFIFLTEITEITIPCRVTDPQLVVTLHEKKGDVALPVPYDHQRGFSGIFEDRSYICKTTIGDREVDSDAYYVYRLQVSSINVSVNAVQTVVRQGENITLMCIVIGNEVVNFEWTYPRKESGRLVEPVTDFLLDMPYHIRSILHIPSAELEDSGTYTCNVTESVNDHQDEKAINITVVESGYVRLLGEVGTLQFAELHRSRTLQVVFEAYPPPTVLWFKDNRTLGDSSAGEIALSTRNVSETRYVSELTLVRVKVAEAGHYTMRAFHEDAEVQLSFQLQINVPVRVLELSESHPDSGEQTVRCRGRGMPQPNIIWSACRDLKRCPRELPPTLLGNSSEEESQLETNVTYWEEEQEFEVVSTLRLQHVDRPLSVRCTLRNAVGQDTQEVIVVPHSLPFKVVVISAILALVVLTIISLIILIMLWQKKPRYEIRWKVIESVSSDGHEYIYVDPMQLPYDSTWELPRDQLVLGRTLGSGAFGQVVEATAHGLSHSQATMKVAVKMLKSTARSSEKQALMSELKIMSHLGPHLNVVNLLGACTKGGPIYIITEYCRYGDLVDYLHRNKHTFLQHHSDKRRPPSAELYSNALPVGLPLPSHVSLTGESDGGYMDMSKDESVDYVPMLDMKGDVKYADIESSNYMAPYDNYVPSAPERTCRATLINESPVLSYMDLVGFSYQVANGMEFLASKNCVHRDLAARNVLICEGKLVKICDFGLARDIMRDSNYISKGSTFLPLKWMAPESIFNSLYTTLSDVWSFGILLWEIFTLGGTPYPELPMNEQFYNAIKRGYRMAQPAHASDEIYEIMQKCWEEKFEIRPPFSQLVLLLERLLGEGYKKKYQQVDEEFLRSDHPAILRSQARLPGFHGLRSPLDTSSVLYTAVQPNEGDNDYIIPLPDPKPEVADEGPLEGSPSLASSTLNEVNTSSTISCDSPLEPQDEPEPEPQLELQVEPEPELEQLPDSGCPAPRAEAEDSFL
# Description: Growth assays were carried out using human mammary epithelial SKBR3 (ATCC HTB30) cells (SKBR3 cells over-express HER2), SKOV3 (ATCC HTB77) human ovarian cancer cell line (SKOV3 cells also over-express HER2), A431 cells (A431 cells over-express EGFR) MCF7 human breast carcinoma cells, MCF7 cells overexpressing the HER2 kinase (MCF7-HER2), NIH3T3 cells, and NIH3T3 cells overexpressing the HER2 kinase (3T3-HER2.
# The PDGF cellular kinase assay was carried out as follows: cells are lysed in 0.2M Hepes, 0.15M NaCl, 10% V/V glycerol, 0.04% Triton X-100, 5 mM EDTA, 5 mM Na+ vanadate and 2 mM Na+ pyrophosphate; cell lysates are then added to an ELISA plate coated with an anti-PDGF receptor antibody (Genzyme); ELISA plates are coated at 0.5 μg of antibody/well in 150 μl of PBS for 18 hours at 4° C. prior to the addition of the lysate; the lysate is incubated in the coated plates for 1 hour and then washed four times in TBST (35 mM Tris-HCl pH 7.0, 0.15M NaCl, 0.1% Triton X100); anti-phosphotyrosine antibody (100 μl in PBS) is added and the mixture is incubated for 30 minutes at room temperature; the wells were then washed four times in TBST, a secondary antibody conjugated to POD (TAGO) is added to each well, and the treated well are incubated for 30 minutes at room temperature; the wells are then washed four times in TBST, ABTS/H2 O2 solution is added to each well and the wells are incubated for two minutes; absorbance is then measured at 410 nm.
# U1242 MG cells were plated in 96-well plates at a concentration of 5×10^4 cells/well in cultured media containing 0.5% FBS. The cells were incubated for 24 hours. The cells were then treated with a particular compound for 2 hours followed by the addition of 100 ng/ml PDGF-BB and incubation for 10 minutes.
# Cells were lysed in 0.2M Hepes, 0.15M NaCl, 10% V/V glycerol, 0.04% Triton X-100, 5 mM EDTA, 5 mM Na+ vanadate and 2 mM Na+ pyrophosphate. Cell lysates were then added to an ELISA plate coated with an anti-PDGF receptor antibody (Genzyme). ELISA plates were coated at 0.5 μg of antibody/well in 150 μl of PBS for 18 hours at 4° C. prior to the addition of the lysate.
# The lysate was incubated in the coated plates for 1 hour and then washed four times in TBST (35 mM Tris-HCl pH 7.0, 0.15M NaCl, 0.1% Triton X-100). Anti-phosphotyrosine antibody (100 μl in PBS) was added and the mixture was incubated for 30 minutes at room temperature. The wells were then washed four times in TBST, a secondary antibody conjugated to POD (TAGO) was added to each well, and the treated well were incubated for 30 minutes at room temperature. The wells were then washed four times in TBST, ABTS/H2 O2 solution was added to each well and the wells were incubated for two minutes. Absorbance was then measured at 410 nm.
# [1] = system: NIH3T3 cells overexpressing the HER2 kinase (3T3-HER2); test: 3T3 Growth Assay (HER2-overexpressing 3T3 cells, SRB); type: cell-based; settings: Mus musculus
# Source text: The following examples illustrate the ability of the exemplary compounds to inhibit receptor tyrosine kinases, such as HER2 and/or EGFR. The following target cells were used for cellular kinase assays: NIH3T3 clone C7 (Honegger et al., supra) engineered to over-express human EGF receptor; NIH3T3 cells engineered to over-express a chimeric receptor containing the EGFR extracellular domain and the HER2 intracellular kinase domain; the human mammary carcinoma line BT474 (ATCC HTB2) expressing HER2; and the human glioblastoma line U1242 that expresses PDGFR-beta. Growth assays were carried out using human mammary epithelial SKBR3 (ATCC HTB30) cells (SKBR3 cells over-express HER2), SKOV3 (ATCC HTB77) human ovarian cancer cell line (SKOV3 cells also over-express HER2), A431 cells (A431 cells over-express EGFR) MCF7 human breast carcinoma cells, MCF7 cells overexpressing the HER2 kinase (MCF7-HER2), NIH3T3 cells, and NIH3T3 cells overexpressing the HER2 kinase (3T3-HER2.
# The 3T3 growth assay was carried out as follows: […]
# (1) HER2C7 (engineered to express HER2) and NIH3T3C7 (as the control) cells are used for this assay. […] Cells are incubated at 37° C., 5% CO2 overnight to allow for cell attachment to the plate;
# (2) The […] compound is added to the cells at day 2. […] A total of 100 μl/well medium of the diluted compounds is added into the cells. The total volume of each well is 200 μl. Quadruplicates (wells) and 11 concentration points are applied to each compound tested.
# (3) After the cells are treated with the compound for 4 days, the cells are washed with PBS and fixed with 200 μl/well ice-cold 10% TCA for one hour at 0°-5° C. condition.
# (4) Remove TCA and rinse wells 5 times with deionized water. Dry plates upside down with paper towels. Stain cells with 0.4% SRB at 100 μl well for 10 minutes.
# (5) Pour off SRB and rinse plate 5 times with 1% acetic acid. Dry plate completely.
# (6) Solubilize the dye with 10 mM Tris-base at 100 μl/well for 10 minutes on a shaker.
# (7) Read the plate at dual wavelengths at 570 nm and 630 nm on Dynatech Elisa plate reader.
# [2] = U1242 MG cells, PDGF-BB stimulated, read-out: ELISA DATA: PDGFR
# [3] = read-out: GROWTH DATA: 3T3/HER2 2% FBS
# [4] = read-out: GROWTH DATA: 3T3/HER2 10% FBS
pIC50 (PDGFR-beta; [2]),Compound,"pIC50 [1, 3]","pIC50 [1, 4]",pIC50 (PDGFR-beta)
< 4.30,"CC(C)S(=O)(=O)c1csc(NC(=O)Nc2ccc(C(C)(C)C)cc2)c1Cl [Example Z1, N-[3-Chloro-4-(isopropylsulfonyl)thien-2-yl]-N'-(4-t-butylphenyl)urea]",6.00,4.82,–
–,O=C(Nc1ccc(SC(F)(F)F)cc1)Nc1ccc(Oc2ccc(Cl)cc2Cl)nc1 [Example Z3],6.46,4.74,< 4.00
< 4.30,"CC(C)S(=O)(=O)c1csc(NC(=O)Nc2cc(C(F)(F)F)cc(C(F)(F)F)c2)c1Cl [Example Z2, N-[3-Chloro-4-(isopropylsulfonyl)thien-2-yl]-N'-(3,5-di-trifluoromethylphenyl)urea]",6.22,4.74,–
< 4.00,"N#Cc1ccc(NC(=S)Nc2ccc(S(=O)(=O)N3CCCCC3)cc2)cc1 [Example Z4, N-(4-Cyanophenyl)-N'-[4-[(piperid-1-yl)sulfonyl]phenyl]thiourea]",–,–,–
